According to patent US12583891B2, “Peptides and methods for the treatment of diabetes” (IMCYSE SA, priority 2017, dated 2026):

Key:
[1] = Reductase (reducing) activity of peptides, fluorescent FITC-peptide assay; assay type: biochemical; conditions: fluorescent FITC-peptide disulfide reduction; dithiothreitol control = 100%
Description: The reductase activity of the peptides is determined using a fluorescent described in Tomazzolli et al. (2006) Anal. Biochem. 350, 105-112. Two peptides with a FITC label become self-quenching when they covalently attached to each other via a disulfide bridge. Upon reduction by a peptide in accordance with the present invention, the reduced individual peptides become fluorescent again.
Control experiments were performed with dithiothreitol (100% reducing activity) and water (100% reducing activity).

[2] = test system: CD4+ T cell line from a T1D patient (T1D07); assay: Interferon gamma release by cytolytic CD4+ T cell line; assay type: cell-based, human; conditions: for IFN-gamma (pg/ml), Stimulus 1: T cell line primed with p17-001, after 12 stimulations, co-culture with autologous LCL B cells loaded (2 μM) with peptide, supernatant after 24 hours, multiplex assay
Description: Interferon gamma is an important marker to characterise cytolytic CD4+ T cells. A specific CD4+ T cell line was obtained by priming and stimulating naïve CD4+ T cells from a T1D patient (T1D07) with peptide p17-001. After 12 stimulations, cells were co-cultured with autologous LCL B cells loaded (2 μM) with peptide p17-001 or p17-003. After 24 hours, supernatants were collected and IFN-gamma was measured by multiplex assay (see table 1 below).

[3] = test system: CD4+ T cell lines from T1D patients; assay: FasL release by cytolytic CD4+ T cell lines; assay type: cell-based, human; conditions: for FasL expression (pg/ml) Stimulation 1: day 11 of stimulation 1; for FasL expression (pg/ml) Stimulation 1 / FasL expression (pg/ml) Stimulation 2 / FasL expression (pg/ml) Stimulation 3 / FasL expression (pg/ml) Stimulation 4: restimulation with corresponding peptide presented by autologous B cells; for FasL expression (pg/ml) Stimulation 1 / FasL expression (pg/ml) Stimulation 2: supernatant after 24 h; for FasL expression (pg/ml) Stimulation 2: day 11 of stimulation 2; for FasL expression (pg/ml) Stimulation 3: day 11 of stimulation 3; for FasL expression (pg/ml) Stimulation 3 / FasL expression (pg/ml) Stimulation 4: supernatant after 72 h; for FasL expression (pg/ml) Stimulation 4: day 11 of stimulation 4
Description: The T cell line originally generated with p17 001 as described in example 3 above was divided and stimulated with peptide P17 003 or P17 001 over 4 successive in vitro stimulations using autologous LCL B cell line as APC. At day 11 of every stimulation (total of 4), cells were tested for FasL after restimulation with their corresponding peptide presented by autologous B cells. Supernatants were collected after 24 h (stimulation 1 and 2) or 72 h (stimulation 3 and 4) of co-culture.

[4] = test system: PBMCs from T1D-patient T1D018 (IL5 positive cells); assay: sFasL release in cell lines generated from T1D-patient PBMCs; assay type: cell-based, human; conditions: IL5 positive cells after 6 stimulation cycles, restimulated 24 h with cognate peptide; ELISA; p<0,0001
Description: FIG. 1: Release of sFasL in cell lines generated with p17-003 or p17-001. Cells specific for p17-003 or p17-001 (IL5 positive cells; black histograms) were restimulated for 24 h with antigen presenting cells loaded with peptides p17-003 or p17-001, depending of the peptide used for their generation, and supernatant collected after 24 h of co-culture. IL-5 negative cells are for control PBMC populations (open histograms). Results represent mean+/−SD of sFasL concentration corrected per cell number.
(§1) PBMCs from T1D-patient T1D018 were stimulated in vitro either with P17001 peptide or P17003 peptide. These two populations specifically release […] after antigenic activation. After 6 stimulation cycles with the peptides, both cell lines were enriched for IL-5 producing cells with cytokine capture beads. The two populations of Interleukin-5 negative cells were used as controls.
(§2) These four populations are then tested for specific release of sFasL, Granzyme B and cytokines after stimulation with their cognate peptide (P17-001 or P17-003). Supernatants are collected after 24 h of culture and sFasL and Granzyme B are measured by ELISA (sFasL: Diaclone 851730010; Granzyme B: eBioscience BMS2027) and cytokines by MACSplex Cytokine 12 kit (Miltenyi, 130-099-169).

[5] = test system: PBMCs from T1D-patient T1D018 (IL5 positive fraction); assay: Cytokine release in cell lines generated from T1D-patient PBMCs (MACSplex Cytokine 12 kit); assay type: cell-based, human; conditions: supernatant after 24 h, end of stimulation 10; FIG. 2
Description: as §1, §2
To determine if the in vitro cultured cells from T1D donors are specific for peptide P17001 or P17003, the release of cytokines, a hallmark for cell activation upon peptide stimulation, was investigated using MACSplex Cytokine 12 kit (Miltenyi, 130-099-169). Supernatant was collected after 24 h from the culture of T1D donor PBMCs in the absence or presence of the peptide. […] Specificity test was performed at the end of stimulation 10 (resting day). The result is presented as the difference in concentration of each cytokine in the condition without and with peptide.

Row | Compound | reducing activity [1] [%] | IFN-gamma (pg/ml), Stimulus 1 [2] [pg/mL] | FasL expression (pg/ml) Stimulation 1 [3] [pg/mL] | FasL expression (pg/ml) Stimulation 2 [3] [pg/mL] | FasL expression (pg/ml) Stimulation 3 [3] [pg/mL] | FasL expression (pg/ml) Stimulation 4 [3] [pg/mL] | IFN-gamma produced after stimulation with p17 003 compared to p17 001 ([2]; ratio of Table 1 values) | FasL (sFasL) expression compared to P17-001 ([3]; each of the four stimulations) | sFasL release compared with cells generated by peptide p17-001 [4] [fold] | eliciting peptide specific cells (cytokine release upon peptide stimulation) compared with P17001 [5]
1 | O[C@H](CS)[C@H](O)CS (racemic) [dithiothreitol] | 100 |  |  |  |  |  |  |  |  | 
2 | HCPYC VR SLQPLALEGSLQKRG (HCPYCVRSLQPLALEGSLQKRG; peptide with redox motif and insulin T cell epitope) [P17 001, reference compound] | 68 | 11.1 ± 0.8 | 1335 ± 23.1 | 1144 ± 15.4 | 1227 ± 49.1 | 1008 ± 102 |  |  |  | 
3 | HCPYCSLQPLALEGSLQKRG (peptide with redox motif and insulin T cell epitope) [P17 003] | 65 | 29.7 ± 14.1 | 1795 ± 42.4 | 1812 ± 34.7 | 2063 ± 166 | 1526 ± 102 | about 3 times | significantly higher | 4.5 | more potent
